Laboratory results from patent US9603804B2, “Solid pharmaceutical composition” (KYORIN PHARMACEUTICAL CO., LTD., priority 2013, dated 2017).

Legend:
[1] = pH measurement of acidic/basic substances (2.5% liquid, pH meter); type: physicochemical; conditions: 50 mg substance dissolved or suspended in 1,950 μL of water (concentration: 2.5%)
[2] = Solubility in water at 20° C. of acidic substances; type: physicochemical; conditions: MW={C/(100+C)}×100, C = mass (g) of solute dissolved in 100 g of water
Method: The “solubility in water” herein is a value obtained by calculation using the following equation (A) on the basis of the mass (g) of a solute that is dissolved in 100 g of water. MW={C/(100+C)}×100 (A) In the equation (A), MW represents the solubility (%) in water and C represents the mass (g) of a solute that is dissolved in 100 g of water.

| SMILES | pH [1] | SOLUBILITY IN WATER (20° C.) [2] |
| --- | --- | --- |
| O=C([O-])CC(O)(CC(=O)[O-])C(=O)O.[Na+].[Na+] [DIBASIC SODIUM CITRATE, dibasic sodium citrate] | 5.1 | – |
| O=C(O)/C=C/C(=O)O [FUMARIC ACID, fumaric acid] | 2.2 | 0.63% |
| O=C(O)C(O)C(O)C(=O)O [L-(+)TARTARIC ACID, L-(+)tartaric acid] | 1.9 | – |
| O=C([O-])CC(O)(CC(=O)O)C(=O)O.[Na+] [MONOBASIC SODIUM CITRATE, monobasic sodium citrate] | 3.7 | – |
| O=C([O-])CC(O)(CC(=O)[O-])C(=O)[O-].[Na+].[Na+].[Na+] [SODIUM CITRATE, sodium citrate] | 8.2 | – |

The next lines start with the values.

| pH [1] | SOLUBILITY IN WATER (20° C.) [2] | SMILES |
| --- | --- | --- |
| 2.1 | 36.0% | O=C(O)CC(O)C(=O)O (racemic) [DL-MALIC ACID, DL-malic acid] |
| 2.1 | – | O=C(O)CC(O)(CC(=O)O)C(=O)O [ANHYDROUS CITRIC ACID, citric acid anhydride] |
| 2.8 | – | N[C@@H](CC(=O)O)C(=O)O [L-ASPARTIC ACID, L-aspartic acid] |
| 1.5 | – | Cl.N[C@@H](CCC(=O)O)C(=O)O [L-GLUTAMIC ACID HYDROCHLORIDE, L-glutamic acid hydrochloride] |
| 3.0 | – | N[C@@H](CCC(=O)O)C(=O)O [L-GLUTAMIC ACID, L-glutamic acid] |
